{"source": "patent US10131652B2", "about": "“Pyrimidinyloxy benzene derivatives as herbicides” (E. I. DU PONT DE NEMOURS AND COMPANY, priority 2014, dated 2018)", "experiment_in_all_cases": "Test E pre-/postemergence plant response", "assay_type_in_all_cases": "in vivo", "key": {"[1]": {"system": "blackgrass (Alopecurus myosuroides)", "settings": "scale 0 to 100, read-out: Plant response rating, Blackgrass; for pest or weed control at 16 g/ha: 16 g ai/ha; for pest or weed control at 31 g/ha: 31 g ai/ha; for pest or weed control at 62 g/ha: 62 g ai/ha; for pest or weed control at 125 g/ha: 125 g ai/ha", "procedure,_shortened": "(§1)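 Visual scores on a 0–100 scale (100 = complete control) were assigned against untreated controls 7–21 days after treatment in a controlled environment. Compounds, formulated with solvent plus surfactant, were applied to pre-emergence silt-loam sowings or to 1- to 4-leaf plants (2–18 cm) in potting medium.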"}, "[2]": {"system": "bluegrass (annual bluegrass, Poa annua)", "settings": "scale 0 to 100, read-out: Plant response rating, Bluegrass; for pest or weed control at 16 g/ha: 16 g ai/ha; for pest or weed control at 31 g/ha: 31 g ai/ha; for pest or weed control at 62 g/ha: 62 g ai/ha; for pest or weed control at 125 g/ha: 125 g ai/ha", "procedure,_shortened": "as §1"}, "[3]": {"system": "chamomile (scentless chamomile, Matricaria inodora)", "settings": "Tripleurospermum inodorum, post-emergence, Postemergence, scale 0 to 100, read-out: Plant response rating, Chamomile", "procedure,_shortened": "as §1"}, "[4]": {"system": "deadnettle (henbit deadnettle, Lamium amplexicaule)", "settings": "scale 0 to 100, read-out: Plant response rating, Deadnettle; for pest or weed control at 16 g/ha: 16 g ai/ha; for pest or weed control at 31 g/ha: 31 g ai/ha; for pest or weed control at 62 g/ha: 62 g ai/ha; for pest or weed control at 125 g/ha: 125 g ai/ha", "procedure,_shortened": "as §1"}, "[5]": {"system": "downy bromegrass (Bromus tectorum)", "settings": "scale 0 to 100, read-out: Plant response rating, Bromegrass, Downy; for pest or weed control at 16 g/ha: 16 g ai/ha; for pest or weed control at 31 g/ha: 31 g ai/ha; for pest or weed control at 62 g/ha: 62 g ai/ha; for pest or weed control at 125 g/ha: 125 g ai/ha", "procedure,_shortened": "as §1"}, "[6]": {"system": "galium (catchweed bedstraw, Galium aparine)", "settings": "scale 0 to 100, read-out: Plant response rating, Galium; for pest or weed control at 16 g/ha: 16 g ai/ha; for pest or weed control at 31 g/ha: 31 g ai/ha; for pest or weed control at 62 g/ha: 62 g ai/ha; for pest or weed control at 125 g/ha: 125 g ai/ha", "procedure,_shortened": "as §1"}, "[7]": {"system": "lambsquarters (Chenopodium album)", "settings": "scale 0 to 100, read-out: Plant response rating, Lambsquarters; for pest or weed control at 16 g/ha: 16 g ai/ha; for pest or weed control at 31 g/ha: 31 g ai/ha; for pest or weed control at 62 g/ha: 62 g ai/ha; for pest or weed control at 125 g/ha: 125 g ai/ha", "procedure,_shortened": "as §1"}, "[8]": {"system": "winter barley (Hordeum vulgare)", "settings": "scale 0 to 100, read-out: Plant response rating, Barley, Winter; for plant injury at 16 g/ha: 16 g ai/ha; for plant injury at 31 g/ha: 31 g ai/ha; for plant injury at 62 g/ha: 62 g ai/ha; for plant injury at 125 g/ha: 125 g ai/ha", "procedure,_shortened": "as §1"}}, "note": "Read-outs that look alike come from different tables or passages of the source.", "data": [{"smiles": "Fc1cccc(Oc2ncc(Cl)cn2)c1-c1cc(C(F)(F)F)on1", "note": "[Compound 168, 5-chloro-2-[2-[5-(trifluoromethyl)-3-isoxazolyl]-3-fluorophenoxy]pyrimidine]", "values": [{"measurement": "pest or weed control at 16 g/ha", "setting": "[1]; post-emergence, Postemergence", "result": 15, "unit": "%"}, {"measurement": "pest or weed control at 31 g/ha", "setting": "[1]; post-emergence, Postemergence", "result": 25, "unit": "%"}, {"measurement": "pest or weed control at 62 g/ha", "setting": "[1]; post-emergence, Postemergence", "result": 35, "unit": "%"}, {"measurement": "pest or weed control at 125 g/ha", "setting": "[1]; post-emergence, Postemergence", "result": 60, "unit": "%"}, {"measurement": "pest or weed control at 16 g/ha", "setting": "[1]; pre-emergence, Preemergence", "result": 10, "unit": "%"}, {"measurement": "pest or weed control at 31 g/ha", "setting": "[1]; pre-emergence, Preemergence", "result": 35, "unit": "%"}, {"measurement": "pest or weed control at 62 g/ha", "setting": "[1]; pre-emergence, Preemergence", "result": 100, "unit": "%"}, {"measurement": "pest or weed control at 125 g/ha", "setting": "[1]; pre-emergence, Preemergence", "result": 100, "unit": "%"}, {"measurement": "pest or weed control at 16 g/ha", "setting": "[2]; post-emergence, Postemergence", "result": 10, "unit": "%"}, {"measurement": "pest or weed control at 31 g/ha", "setting": "[2]; post-emergence, Postemergence", "result": 5, "unit": "%"}, {"measurement": "pest or weed control at 62 g/ha", "setting": "[2]; post-emergence, Postemergence", "result": 10, "unit": "%"}, {"measurement": "pest or weed control at 125 g/ha", "setting": "[2]; post-emergence, Postemergence", "result": 15, "unit": "%"}, {"measurement": "pest or weed control at 16 g/ha", "setting": "[2]; pre-emergence, Preemergence", "result": 0, "unit": "%"}, {"measurement": "pest or weed control at 31 g/ha", "setting": "[2]; pre-emergence, Preemergence", "result": 10, "unit": "%"}, {"measurement": "pest or weed control at 62 g/ha", "setting": "[2]; pre-emergence, Preemergence", "result": 80, "unit": "%"}, {"measurement": "pest or weed control at 125 g/ha", "setting": "[2]; pre-emergence, Preemergence", "result": 100, "unit": "%"}, {"measurement": "pest or weed control at 16 g/ha", "setting": "[3]; 16 g ai/ha", "result": 5, "unit": "%"}, {"measurement": "pest or weed control at 31 g/ha", "setting": "[3]; 31 g ai/ha", "result": 5, "unit": "%"}, {"measurement": "pest or weed control at 62 g/ha", "setting": "[3]; 62 g ai/ha", "result": 10, "unit": "%"}, {"measurement": "pest or weed control at 125 g/ha", "setting": "[3]; 125 g ai/ha", "result": 10, "unit": "%"}, {"measurement": "pest or weed control at 16 g/ha", "setting": "[4]; post-emergence, Postemergence", "result": 20, "unit": "%"}, {"measurement": "pest or weed control at 31 g/ha", "setting": "[4]; post-emergence, Postemergence", "result": 55, "unit": "%"}, {"measurement": "pest or weed control at 62 g/ha", "setting": "[4]; post-emergence, Postemergence", "result": 75, "unit": "%"}, {"measurement": "pest or weed control at 125 g/ha", "setting": "[4]; post-emergence, Postemergence", "result": 80, "unit": "%"}, {"measurement": "pest or weed control at 16 g/ha", "setting": "[4]; pre-emergence, Preemergence", "result": 10, "unit": "%"}, {"measurement": "pest or weed control at 31 g/ha", "setting": "[4]; pre-emergence, Preemergence", "result": 50, "unit": "%"}, {"measurement": "pest or weed control at 62 g/ha", "setting": "[4]; pre-emergence, Preemergence", "result": 80, "unit": "%"}, {"measurement": "pest or weed control at 125 g/ha", "setting": "[4]; pre-emergence, Preemergence", "result": 100, "unit": "%"}, {"measurement": "pest or weed control at 16 g/ha", "setting": "[5]; post-emergence, Postemergence", "result": 5, "unit": "%"}, {"measurement": "pest or weed control at 31 g/ha", "setting": "[5]; post-emergence, Postemergence", "result": 15, "unit": "%"}, {"measurement": "pest or weed control at 62 g/ha", "setting": "[5]; post-emergence, Postemergence", "result": 25, "unit": "%"}, {"measurement": "pest or weed control at 125 g/ha", "setting": "[5]; post-emergence, Postemergence", "result": 35, "unit": "%"}, {"measurement": "pest or weed control at 16 g/ha", "setting": "[5]; pre-emergence, Preemergence", "result": 0, "unit": "%"}, {"measurement": "pest or weed control at 31 g/ha", "setting": "[5]; pre-emergence, Preemergence", "result": 10, "unit": "%"}, {"measurement": "pest or weed control at 62 g/ha", "setting": "[5]; pre-emergence, Preemergence", "result": 10, "unit": "%"}, {"measurement": "pest or weed control at 125 g/ha", "setting": "[5]; pre-emergence, Preemergence", "result": 40, "unit": "%"}, {"measurement": "pest or weed control at 16 g/ha", "setting": "[6]; post-emergence, Postemergence", "result": 75, "unit": "%"}, {"measurement": "pest or weed control at 31 g/ha", "setting": "[6]; post-emergence, Postemergence", "result": 75, "unit": "%"}, {"measurement": "pest or weed control at 62 g/ha", "setting": "[6]; post-emergence, Postemergence", "result": 80, "unit": "%"}, {"measurement": "pest or weed control at 125 g/ha", "setting": "[6]; post-emergence, Postemergence", "result": 85, "unit": "%"}, {"measurement": "pest or weed control at 16 g/ha", "setting": "[6]; pre-emergence, Preemergence", "result": 60, "unit": "%"}, {"measurement": "pest or weed control at 31 g/ha", "setting": "[6]; pre-emergence, Preemergence", "result": 60, "unit": "%"}, {"measurement": "pest or weed control at 62 g/ha", "setting": "[6]; pre-emergence, Preemergence", "result": 100, "unit": "%"}, {"measurement": "pest or weed control at 125 g/ha", "setting": "[6]; pre-emergence, Preemergence", "result": 100, "unit": "%"}, {"measurement": "pest or weed control at 16 g/ha", "setting": "[7]; post-emergence, Postemergence", "result": 75, "unit": "%"}, {"measurement": "pest or weed control at 31 g/ha", "setting": "[7]; post-emergence, Postemergence", "result": 85, "unit": "%"}, {"measurement": "pest or weed control at 62 g/ha", "setting": "[7]; post-emergence, Postemergence", "result": 90, "unit": "%"}, {"measurement": "pest or weed control at 125 g/ha", "setting": "[7]; post-emergence, Postemergence", "result": 95, "unit": "%"}, {"measurement": "pest or weed control at 16 g/ha", "setting": "[7]; pre-emergence, Preemergence", "result": 45, "unit": "%"}, {"measurement": "pest or weed control at 31 g/ha", "setting": "[7]; pre-emergence, Preemergence", "result": 100, "unit": "%"}, {"measurement": "pest or weed control at 62 g/ha", "setting": "[7]; pre-emergence, Preemergence", "result": 100, "unit": "%"}, {"measurement": "pest or weed control at 125 g/ha", "setting": "[7]; pre-emergence, Preemergence", "result": 100, "unit": "%"}, {"measurement": "plant injury at 16 g/ha", "setting": "[8]; post-emergence, Postemergence", "result": 5, "unit": "%"}, {"measurement": "plant injury at 31 g/ha", "setting": "[8]; post-emergence, Postemergence", "result": 10, "unit": "%"}, {"measurement": "plant injury at 62 g/ha", "setting": "[8]; post-emergence, Postemergence", "result": 10, "unit": "%"}, {"measurement": "plant injury at 125 g/ha", "setting": "[8]; post-emergence, Postemergence", "result": 15, "unit": "%"}, {"measurement": "plant injury at 16 g/ha", "setting": "[8]; pre-emergence, Preemergence", "result": 0, "unit": "%"}, {"measurement": "plant injury at 31 g/ha", "setting": "[8]; pre-emergence, Preemergence", "result": 5, "unit": "%"}, {"measurement": "plant injury at 62 g/ha", "setting": "[8]; pre-emergence, Preemergence", "result": 25, "unit": "%"}, {"measurement": "plant injury at 125 g/ha", "setting": "[8]; pre-emergence, Preemergence", "result": 40, "unit": "%"}]}]}
